In patent US20230381142A1, “ANTILEISHMANIAL COMPOUNDS, COMPOSITIONS AND USE THEREOF” (TRUSTEES OF BOSTON UNIVERSITY, priority 2022, published 2023):
Values after ≈ are worked out from the molar mass of the structure shown.

Assays:
host THP-1 macrophages = assay: GSK inMac assay, host cell toxicity readout (LD MAC); type: cell-based, human
Procedure, shortened: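 Intramacrophage L. donovani assay in THP-1 macrophages; host toxicity taken from host cell number per well, giving MAC EC50. Run alongside amastigote-per-cell and infected-cell readouts in the same wells.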

[1] = tested on: L. major (strain LV39) intracellular amastigotes infecting THP-1 cells; assay: High content intracellular amastigote assay in THP-1 cells (Assay Conditions B); type: cell-based, Leishmania major; conditions: Leishmania major; THP-1 host cells
Experimental: (§1) Assay Conditions B: THP-1 cells (human acute monocytic leukemia cell line—ATCC TIB202) were grown in RPMI supplemented with 10% Fetal Bovine Serum (FBS) and 50 μM 2-mercaptoethanol at 37° C. in 5% CO2. THP-1 were seeded in microwell plates at 5×10^5 cells/mL density and treated with 0.1 μM phorbol myristate acetate (PMA, Sigma) at 37° C. for 48 h for differentiation into adherent, non-dividing macrophages. After activation by PMA, cells were washed and incubated with complete RPMI medium containing stationary phase Leishmania promastigotes (L. major: strain LV39; L. donovani, strain 1S/Cl2D) at a 1:15 parasite-cell ratio. Compounds were added and incubated at 37° C. for 72 h. Cells were then washed with phosphate-buffered saline (PBS), fixed for 30 minutes with 4% formaldehyde, rinsed again with PBS, stained for 2 h with 4′,6′-diamidino-2-phenylindole (DAPI 300 nM) and finally washed with PBS. In a collaborative effort to identify new antileishmanial chemotypes with minimal host cell cytotoxicity, compounds from the Boston University Center for Molecular Discovery (BUCMD) screening collection were assessed in a phenotypic, high content primary screen at the University of California's Center for Discovery and Innovation in Parasitic Diseases (CDIPD) for the ability to inhibit growth of L. donovani intracellular amastigotes infecting THP-1 cells. […] Dose-response testing in L. donovani (both intracellular amastigotes and promastigotes) confirmed concentration-dependent growth inhibition of both morphologies of the parasite at low micromolar EC50 values for both compounds (Table 1).

[2] = Kinetic aqueous solubility by CLND; type: physicochemical; conditions: kinetic from dmso stock, high-throughput CLND
Experimental: Solubility of compounds using ChemiLuminescent Nitrogen Detection (CLND) was measured as described. Solubility of compounds using Charged Aerosol Detection (CAD) was measured as described. Solubility of solid compounds in Fasted Simulated Intestinal Fluid (FaSSIF) was measured as described.

[3] = tested on: L. donovani intracellular amastigotes infecting THP-1 cells; assay: High content intracellular amastigote assay in THP-1 cells (Assay Conditions B; CDIPD screen); type: cell-based, Leishmania donovani; conditions: Leishmania donovani; THP-1 host cells
Experimental: as §1

[4] = tested on: L. donovani intracellular amastigotes in B10R cells; assay: UCSD L. donovani infection assay (Assay Conditions D); type: cell-based; conditions: Leishmania donovani
Procedure, shortened: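 B10R cells (300/well) infected with stationary-phase L. donovani WT promastigotes at 20 parasites/cell in DMEM high-glucose, 5% FBS, with compounds 72 h at 37° C., 5% CO2. Formaldehyde-fixed, DAPI-stained, imaged by high-content microscopy; 10-point 2-fold dilutions (screen at 10 μM) gave EC50 and host CC50.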

human serum albumin = human serum albumin (Homo sapiens, UniProt P02768); assay: Human serum albumin (HSA) binding, chromatographic; type: in vitro ADME
human serum albumin, sequence (P02768 25-609): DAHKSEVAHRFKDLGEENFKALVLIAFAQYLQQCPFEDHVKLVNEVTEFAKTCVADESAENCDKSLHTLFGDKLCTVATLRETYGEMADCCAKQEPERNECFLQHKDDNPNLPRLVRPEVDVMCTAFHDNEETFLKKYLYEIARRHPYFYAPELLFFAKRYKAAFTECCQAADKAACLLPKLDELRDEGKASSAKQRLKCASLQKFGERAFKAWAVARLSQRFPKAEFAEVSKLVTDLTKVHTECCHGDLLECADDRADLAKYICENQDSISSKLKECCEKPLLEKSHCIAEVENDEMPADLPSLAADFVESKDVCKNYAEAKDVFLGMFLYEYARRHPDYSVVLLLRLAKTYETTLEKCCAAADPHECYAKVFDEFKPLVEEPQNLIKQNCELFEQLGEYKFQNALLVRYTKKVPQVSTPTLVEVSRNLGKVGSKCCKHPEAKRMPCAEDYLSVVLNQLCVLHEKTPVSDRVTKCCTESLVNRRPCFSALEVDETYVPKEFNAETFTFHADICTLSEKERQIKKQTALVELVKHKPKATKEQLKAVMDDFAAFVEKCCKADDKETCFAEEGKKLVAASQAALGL
Experimental: The percentage of compound bound to human serum albumin was measured using a chromatographic method as described. Briefly, each compound was assayed on an immobilized HSA column and gradient retention times measured, with chromatographic peak detection by UV. Each retention time was then converted to a % HSA bound value using a calibration set of compounds with a known % HSA binding.

[5] = Host THP-1 cell cytotoxicity in the CDIPD high content screen; type: cell-based, human; conditions: human
Experimental: as §1

[6] = Homo sapiens, THP-1, cytotoxicity against host THP-1 macrophages

Row | solubility ([2]; aqueous medium) | IC50 [4] | EC50 ([4]; average of two biological replicates, read-out: L. donovani EC50 (UCSD assay)) | HSA Binding (human serum albumin) | solubility ([2]; aqueous medium (not further specified)) | SMILES | EC50 (host THP-1 macrophages; [6]) | EC50 (host THP-1 macrophages; cytotoxicity against host THP-1 macrophages, listed as rac-1) | EC50 [1] | EC50 [3] | CC50 at 72 h [5]
1 | 107 µM (≈ 40.6 µg/mL) | 800 nM | 820 nM | 96.4% |  | COc1ccc(N2C(=O)c3[nH]nc(CC(C)C)c3C2c2ccc(F)cc2)cc1 (racemic) [Compound 1, 4-(4-fluorophenyl)-3-isobutyl-5-(4-methoxyphenyl)-4,5-dihydropyrrolo[3,4-c]pyrazol-6(1H)-one] | 15800 nM | 15900 nM | 1300 nM | 2500 nM | > 20000 nM
2 |  | 1100 nM |  | 95.8% | 90 µM (≈ 32.5 µg/mL) | COc1ccc(N2C(=O)c3[nH]nc(CC(C)C)c3C2c2ccccc2)cc1 (stereo not shown) [Compound 2] | 31600 nM |  | 1700 nM | 3700 nM | > 20000 nM
